Assay results as given in patent publication US9914731B2, “Pyrazolo[1,5-a]pyridine derivatives and methods of their use” (Ignyta, Inc., priority 2013, dated 2018).

Tests used:
[1] = target: recombinant human baculovirus-expressed AXL (Homo sapiens (Human), UniProt P30530); assay: AXL kinase assay (HTRF KinEASE); assay type: biochemical; conditions: average of two or more determinations
[2] = target: recombinant human baculovirus-expressed cMET (Homo sapiens (Human), UniProt P08581); assay: c-MET kinase assay (HTRF KinEASE); assay type: biochemical; conditions: average of two or more determinations; read-out: c-MET IC50

## Cn1cc(-c2cc(Oc3ccc(NC(=O)c4c[nH]c(=O)n(-c5ccc(F)cc5)c4=O)cc3F)c3ccnn3c2)cn1 [Example 30, 3-(4-Fluoro-phenyl)-2,4-dioxo-1,2,3,4-tetrahydro-pyrimidine-5-carboxylic acid {3-fluoro-4-[6-(1-methyl-1H-pyrazol-4-yl)-pyrazolo[1,5-a]pyridin-4-yloxy]-phenyl}-amide]
[1]
  IC50: < 0.01 µM
[2]
  IC50: < 0.01 µM

## Cc1c(-c2cc(Oc3ccc(NC(=O)c4cccn(-c5ccc(F)cc5)c4=O)cc3F)c3ccnn3c2)cnn1C [Example 39, 1-(4-Fluoro-phenyl)-2-oxo-1,2-dihydro-pyridine-3-carboxylic acid {4-[6-(1,5-dimethyl-1H-pyrazol-4-yl)-pyrazolo[1,5-a]pyridin-4-yloxy]-3-fluoro-phenyl}-amide]
[1]
  IC50: < 0.01 µM
[2]
  IC50: < 0.01 µM

## O=C(Nc1ccc(Oc2cc(N3CCOCC3)cn3nccc23)c(F)c1)c1cccn(-c2ccc(F)cc2)c1=O [Example 56, 1-(4-Fluoro-phenyl)-2-oxo-1,2-dihydro-pyridine-3-carboxylic acid[3-fluoro-4-(6-morpholin-4-yl-pyrazolo[1,5-a]pyridin-4-yloxy)-phenyl]-amide]
[1]
  IC50: < 0.01 µM
[2]
  IC50: < 0.01 µM

## CC(C)n1cc(C(=O)Nc2ccc(Oc3cc(-c4cncs4)cn4nccc34)c(F)c2)c(=O)n(-c2ccc(F)cc2)c1=O [Example 103, 3-(4-Fluoro-phenyl)-1-isopropyl-2,4-dioxo-1,2,3,4-tetrahydro-pyrimidine-5-carboxylic acid[3-fluoro-4-(6-thiazol-5-yl-pyrazolo[1,5-a]pyridin-4-yloxy)-phenyl]-amide]
[1]
  IC50: < 0.01 µM
[2]
  IC50: < 0.01 µM

## CC(C)n1cc(C(=O)Nc2ccc(Oc3cc(N4CCOCC4)cn4nccc34)c(F)c2)c(=O)n(-c2ccc(F)cc2)c1=O [Example 62, 3-(4-Fluoro-phenyl)-1-isopropyl-2,4-dioxo-1,2,3,4-tetrahydro-pyrimidine-5-carboxylic acid[3-fluoro-4-(6-morpholin-4-yl-pyrazolo[1,5-a]pyridin-4-yloxy)-phenyl]-amide]
[1]
  IC50: < 0.01 µM
[2]
  IC50: < 0.01 µM

## CC(C)n1cc(C(=O)Nc2ccc(Oc3cc(-c4cn(C)cn4)cn4nccc34)cc2)c(=O)n(-c2ccc(F)cc2)c1=O [Example 114, 3-(4-Fluoro-phenyl)-1-isopropyl-2,4-dioxo-1,2,3,4-tetrahydro-pyrimidine-5-carboxylic acid{4-[6-(1-methyl-1H-imidazol-4-yl)-pyrazolo[1,5-a]pyridin-4-yloxy]-phenyl}-amide]
[1]
  IC50: < 0.01 µM
[2]
  IC50: < 0.01 µM

## CC(C)n1nc(C(=O)Nc2ccc(Oc3cc(-c4cn(C)cn4)cn4nccc34)c(F)c2)c(=O)n(-c2ccc(F)cc2)c1=O [Example 129, 4-(4-Fluoro-phenyl)-2-isopropyl-3,5-dioxo-2,3,4,5-tetrahydro-1,2,4-triazine-6-carboxylic acid{3-fluoro-4-[6-(1-methyl-1H-imidazol-4-yl)-pyrazolo[1,5-a]pyridin-4-yloxy]-phenyl}-amide]
[1]
  IC50: < 0.01 µM
[2]
  IC50: < 0.01 µM

## Cc1ccc(C(=O)Nc2ccc(Oc3cc(-c4cnn(C)c4)cn4nccc34)c(F)c2)c(=O)n1-c1ccc(F)cc1 [Example 34, 1-(4-Fluoro-phenyl)-6-methyl-2-oxo-1,2-dihydro-pyridine-3-carboxylic acid {3-fluoro-4-[6-(1-methyl-1H-pyrazol-4-yl)-pyrazolo[1,5-a]pyridin-4-yloxy]-phenyl}-amide]
[1]
  IC50: < 0.01 µM
[2]
  IC50: < 0.01 µM

## Cn1cc(Nc2cc(Oc3ccc(NC(=O)c4cccn(-c5ccc(F)cc5)c4=O)cc3F)c3ccnn3c2)cn1 [Example 79, 1-(4-Fluoro-phenyl)-2-oxo-1,2-dihydro-pyridine-3-carboxylic acid {3-fluoro-4-[6-(1-methyl-1H-pyrazol-4-ylamino)-pyrazolo[1,5-a]pyridin-4-yloxy]-phenyl}-amide]
[1]
  IC50: < 0.01 µM
[2]
  IC50: < 0.01 µM

## CCn1cc(C(=O)Nc2ccc(Oc3cc(NC(=O)OC)cn4nccc34)c(F)c2)c(=O)n(-c2ccc(F)cc2)c1=O [Example 148, [4-(4-{[1-Ethyl-3-(4-fluoro-phenyl)-2,4-dioxo-1,2,3,4-tetrahydro-pyrimidine-5-carbonyl]-amino}-2-fluoro-phenoxy)-pyrazolo[1,5-a]pyridin-6-yl]-carbamic acid methyl ester]
[1]
  IC50: < 0.01 µM
[2]
  IC50: 0.01 to 0.1 µM

## CCn1cc(C(=O)Nc2ccc(Oc3cc(-c4cn(C)cn4)cn4nccc34)c(F)c2)c(=O)n(-c2ccc(F)cc2)c1=O [Example 93, 1-Ethyl-3-(4-fluoro-phenyl)-2,4-dioxo-1,2,3,4-tetrahydro-pyrimidine-5-carboxylic acid {3-fluoro-4-[6-(1-methyl-1H-imidazol-4-yl)-pyrazolo[1,5-a]pyridin-4-yloxy]-phenyl}-amide]
[1]
  IC50: < 0.01 µM
[2]
  IC50: < 0.01 µM

## Cn1cc(-c2cc(Oc3ccc(NC(=O)c4cccn(-c5ccc(F)cc5)c4=O)cc3F)c3ccnn3c2)cn1 [Example 29, 1-(4-Fluoro-phenyl)-2-oxo-1,2-dihydro-pyridine-3-carboxylic acid {3-fluoro-4-[6-(1-methyl-1H-pyrazol-4-yl)-pyrazolo[1,5-a]pyridin-4-yloxy]-phenyl}-amide]
[1]
  IC50: < 0.01 µM
[2]
  IC50: < 0.01 µM

## CCn1nc(C(=O)Nc2ccc(Oc3cc(-c4cn(C)cn4)cn4nccc34)c(F)c2)c(=O)n(-c2ccc(F)cc2)c1=O [Example 128, 2-Ethyl-4-(4-fluoro-phenyl)-3,5-dioxo-2,3,4,5-tetrahydro-1,2,4-triazine-6-carboxylic acid {3-fluoro-4-[6-(1-methyl-1H-imidazol-4-yl)-pyrazolo[1,5-a]pyridin-4-yloxy]-phenyl}-amide]
[1]
  IC50: < 0.01 µM
[2]
  IC50: < 0.01 µM

## CC(C)n1cc(C(=O)Nc2ccc(Oc3cc(-c4cnsc4)cn4nccc34)c(F)c2)c(=O)n(-c2ccc(F)cc2)c1=O [Example 55, 3-(4-Fluoro-phenyl)-1-isopropyl-2,4-dioxo-1,2,3,4-tetrahydro-pyrimidine-5-carboxylic acid[3-fluoro-4-(6-isothiazol-4-yl-pyrazolo[1,5-a]pyridin-4-yloxy)-phenyl]-amide]
[1]
  IC50: < 0.01 µM
[2]
  IC50: < 0.01 µM

## CCn1cc(C(=O)Nc2ccc(Oc3cc(-c4cncs4)cn4nccc34)c(F)c2)c(=O)n(-c2ccc(F)cc2)c1=O [Example 104, 1-Ethyl-3-(4-fluoro-phenyl)-2,4-dioxo-1,2,3,4-tetrahydro-pyrimidine-5-carboxylic acid[3-fluoro-4-(6-thiazol-5-yl-pyrazolo[1,5-a]pyridin-4-yloxy)-phenyl]-amide]
[1]
  IC50: < 0.01 µM
[2]
  IC50: < 0.01 µM

## O=C(Nc1ccc(Oc2cc(-c3cscn3)cn3nccc23)c(F)c1)c1cccn(-c2ccc(F)cc2)c1=O [Example 102, 1-(4-Fluoro-phenyl)-2-oxo-1,2-dihydro-pyridine-3-carboxylic acid[3-fluoro-4-(6-thiazol-4-yl-pyrazolo[1,5-a]pyridin-4-yloxy)-phenyl]-amide]
[1]
  IC50: < 0.01 µM
[2]
  IC50: < 0.01 µM

## O=C(Nc1ccc(Oc2cc(-c3ccc(N4CCOCC4)nc3)cn3nccc23)c(F)c1)c1cccn(-c2ccc(F)cc2)c1=O [Example 26, 1-(4-Fluoro-phenyl)-2-oxo-1,2-dihydro-pyridine-3-carboxylic acid {3-fluoro-4-[6-(6-morpholin-4-yl-pyridin-3-yl)-pyrazolo[1,5-a]pyridin-4-yloxy]-phenyl}-amide]
[1]
  IC50: < 0.01 µM
[2]
  IC50: < 0.01 µM

## CC(C)n1cc(C(=O)Nc2ccc(Oc3cc(NC(=O)N(C)C)cn4nccc34)c(F)c2)c(=O)n(-c2ccc(F)cc2)c1=O [Example 147, 3-(4-Fluoro-phenyl)-1-isopropyl-2,4-dioxo-1,2,3,4-tetrahydro-pyrimidine-5-carboxylic acid{4-[6-(3,3-dimethyl-ureido)-pyrazolo[1,5-a]pyridin-4-yloxy]-3-fluoro-phenyl}-amide]
[1]
  IC50: < 0.01 µM
[2]
  IC50: < 0.01 µM

## Cn1cnc(-c2cc(Oc3ccc(NC(=O)c4cn(CCOCc5ccccc5)c(=O)n(-c5ccc(F)cc5)c4=O)cc3F)c3ccnn3c2)c1 [Example 96, 1-(2-Benzyloxy-ethyl)-3-(4-fluoro-phenyl-)-2,4-dioxo-1,2,3,4-tetrahydro-pyrimidine-5-carboxylic acid{3-fluoro-4-[6-(1-methyl-1H-imidazol-4-yl)-pyrazolo[1,5-a]pyridin-4-yloxy]-phenyl}-amide]
[1]
  IC50: < 0.01 µM
[2]
  IC50: 0.01 to 0.1 µM

## Cn1cnc(-c2cc(Oc3ccc(NC(=O)c4cn(C)c(=O)n(-c5ccc(F)cc5)c4=O)cc3F)c3ccnn3c2)c1 [Example 95, 3-(4-Fluoro-phenyl)-1-methyl-2,4-dioxo-1,2,3,4-tetrahydro-pyrimidine-5-carboxylic acid{3-fluoro-4-[6-(1-methyl-1H-imidazol-4-yl)-pyrazolo[1,5-a]pyridin-4-yloxy]-phenyl}-amide]
[1]
  IC50: < 0.01 µM
[2]
  IC50: < 0.01 µM
